Experimental data published in article PMC6013238, “Development of novel NEMO-binding domain mimetics for inhibiting IKK/NF-κB activation” (PLoS Biology, 2018).
Where “and” joins values, the source holds several entries; their conditions need not be identical. Equal entries are not always repeated.

Key:
mdx mice = experiment: Chronic treatment of mdx mice, CD68 immunostaining (macrophages); assay type: in vivo, mouse; conditions: for CD68+ cells, number of cells per myofiber: SR12343 30 mg/kg 4 wk, single measures and ave, 30 mg/kg
Experimental: To determine whether SR12343 and SR12460 improve muscle pathology, TA muscle was stained with hematoxylin–eosin to assess inflammatory infiltration, necrosis, central nucleation, and fibrosis. […] In addition, Masson trichrome stain was conducted to further measure muscle fibrosis. Chronic treatment with SR12343 reduced muscle fibrosis (blue) in diaphragm and TA muscle tissues in comparison to control group (Fig 8A & 8B). To further quantitate the extent of inflammation in mdx muscle tissues, diaphragm and TA muscle were immunostained for cluster of differentiation 68 (CD68), a macrophage marker. Treatment with SR12343 reduced the number of CD68^+ cells by almost 50% per myofiber in both diaphragm and TA tissues (Fig 8A & 8B). […] To quantify the average fiber size in an unbiased way, TA muscle was stained with laminin to outline myofibers, and Feret diameter of all myocytes was quantitated in a whole muscle section.
Fig 8 Chronic treatment with NBD mimetics reduces muscle fibrosis by decreasing macrophage infiltration in mdx mice. (A, B) Trichrome and CD68 staining of (A) diaphragm and (B) TA muscle from 7-wk-old, SR12343-treated or -untreated mdx mice. CD68 (red): marker of tissue macrophage; utrophin (green): stain for myofiber; DAPI (blue): nuclei. Trichrome images were taken at the magnification of 4× for TA and 10× for diaphragm. IHC images were taken at 10× for TA and 20× for diaphragm. Representative images were shown for each treatment group. Data were shown as mean +/− SEM. *P < 0.05; **P < 0.01; ***P < 0.001. Underlying data can be found in S1 Data. CD68, cluster of differentiation 68; IHC, immunohistochemistry; NBD, NEMO-binding domain; NEMO, NF-κB essential modulator; TA, tibialis anterior.
The frozen tissue sections were fixed with 4% paraformaldehyde for 1 h and incubated with 1% BSA for blocking. The primary antibodies CD68 (Abcam, Cambridge, MA) and utrophin (Santa Cruz) were applied at 1:200 for 2 h. The secondary antibodies Alexa Fluor 594 and Alexa Fluor 488 were then applied at 1:400 for 1 h. DAPI (1;1000) solution was used to stain the cell nucleus. All the processes were performed at room temperature.

IKKβ/NEMO interaction = molecular target: T1, IKKβ/NEMO interaction (Mus musculus, UniProt O88522); experiment: Co-immunoprecipitation of endogenous IKKβ and NEMO in Raw 264.7 cells; assay type: cell-based; conditions: 100 μM mimetics, 8K-NBD 400 μM, 30 min
T1 construct: Co-immunoprecipitation of endogenous IKKβ and NEMO; endogenous in cells; host or cells: Raw 264.7
T1 sequence (O88522 whole entry): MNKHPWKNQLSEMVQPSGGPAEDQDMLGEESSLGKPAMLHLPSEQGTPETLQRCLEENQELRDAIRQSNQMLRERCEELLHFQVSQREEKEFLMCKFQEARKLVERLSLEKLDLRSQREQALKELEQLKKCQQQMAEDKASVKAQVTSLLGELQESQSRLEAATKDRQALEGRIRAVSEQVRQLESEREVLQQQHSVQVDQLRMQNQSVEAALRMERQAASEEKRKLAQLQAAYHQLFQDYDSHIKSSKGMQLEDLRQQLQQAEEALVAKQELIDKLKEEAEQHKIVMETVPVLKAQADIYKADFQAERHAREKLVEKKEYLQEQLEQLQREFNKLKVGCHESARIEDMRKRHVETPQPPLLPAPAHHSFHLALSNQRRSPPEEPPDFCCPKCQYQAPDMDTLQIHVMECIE
Experimental: To determine whether the novel NBD mimetics target the NEMO-IKKβ interaction in vivo, co-immunoprecipitations were performed using extracts from Raw 264.7 macrophages (Fig 5A). […] No interaction between NEMO and TNF receptor-associated factor 2 (TRAF2) or IκBα was observed under these conditions. […] The levels of phosphorylated IKK complex, IκBα, and p65 in response to TNF-α and LPS were all reduced by SR12343 (Fig 5D & 5E). […] However, there were no changes in the levels of phospho-c-Jun N-terminal kinase (p-JNK), p-p38MAPK, total JNK, and p38MAPK by treatment with SR12343 (150 μM) in response to TNF-α or LPS stimulation (Fig 5G & 5H). […]
(A) Co-IP analysis detecting the IKKβ/NEMO interaction. […] NEMO-binding products were then analyzed for levels of IKKβ, IKKα, TRAF2, and IκBα (negative control), and levels of NEMO were used as a loading control (left panel). […] The levels of IKKβ-FLAG binding to GST-NEMO were determined by western blot analysis with GST-NEMO used as a loading control. […] Cell lysates were analyzed for activity of the IKK/NF-κB signaling pathway including activation of IKK complex, IκBα, and p65. […] Cell lysates were harvested and analyzed for activation of noncanonical NF-κB signaling, the processing of p100 to p52. […]

O=C(CNc1ccc(Cl)cn1)NCCc1cccc(Br)c1 [SR12343]
CD68+ cells, number of cells per myofiber (mdx mice; Fig 8A, diaphragm muscle): 1.156 and 1.07 and 1.196 | CD68+ cells, number of cells per myofiber (mdx mice; Fig 8A, diaphragm muscle, mean): 1.14 | CD68+ cells, number of cells per myofiber (mdx mice; Fig 8B, TA muscle): 0.646 and 0.5862 and 0.6154 | CD68+ cells, number of cells per myofiber (mdx mice; Fig 8B, TA muscle, mean): 0.6159 | Reduction of number of CD68+ cells per myofiber (mdx mice; diaphragm and TA tissues): ~50% | IKKβ-NEMO interaction (Co-IP) (IKKβ/NEMO interaction): most effective
